Reference: patent US8653088B2, “Compositions useful as inhibitors of protein kinases” (Vertex Pharmaceuticals Incorporated, priority 2003, dated 2014)

The compounds below were run against GSK-3β (AA 1-420) (Homo sapiens, UniProt P49841) (assay: Inhibition of GSK-3, standard coupled enzyme system). Details: 20 μM ATP, 300 μM peptide, 20 nM GSK-3β, 30° C.
Chain of GSK-3β (AA 1-420) (P49841 whole entry, species assumed, the tested form may be a part): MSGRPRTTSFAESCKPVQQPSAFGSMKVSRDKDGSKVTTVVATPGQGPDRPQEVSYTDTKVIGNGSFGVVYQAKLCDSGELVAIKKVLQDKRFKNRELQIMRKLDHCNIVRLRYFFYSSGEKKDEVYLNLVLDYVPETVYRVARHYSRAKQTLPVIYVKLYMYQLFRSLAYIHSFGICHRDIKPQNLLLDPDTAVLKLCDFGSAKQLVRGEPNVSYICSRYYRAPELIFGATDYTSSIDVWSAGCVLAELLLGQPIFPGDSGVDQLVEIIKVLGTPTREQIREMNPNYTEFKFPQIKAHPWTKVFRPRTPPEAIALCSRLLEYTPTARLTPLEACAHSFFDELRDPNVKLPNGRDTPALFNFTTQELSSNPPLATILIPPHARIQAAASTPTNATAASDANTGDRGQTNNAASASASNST
Type: biochemical
Experimental: Compounds were screened for their ability to inhibit GSK-3β (AA 1-420) activity using a standard coupled enzyme system (Fox et al. Protein Sci. 7, p. 2249 (1998)). Reactions were carried out in a solution containing 100 mM HEPES (pH 7.5), 10 mM MgCl2, 25 mM NaCl, 300 μM NADH, 1 mM DTT and 1.5% DMSO. Final substrate concentrations in the assay were 20 μM ATP (Sigma Chemicals, St Louis, Mo.) and 300 μM peptide (American Peptide, Sunnyvale, Calif.). Reactions were carried out at 30° C. and 20 nM GSK-3β. Final concentrations of the components of the coupled enzyme system were 2.5 mM phosphoenolpyruvate, 300 μM NADH, 30 μg/ml pyruvate kinase and 10 μg/ml lactate dehydrogenase.
An assay stock buffer solution was prepared containing all of the reagents listed above with the exception of ATP and the test compound of interest. The assay stock buffer solution (175 μl) was incubated in a 96 well plate with 5 μl of the test compound of interest at final concentrations spanning 0.002 μM to 30 μM at 30° C. for 10 min. Typically, a 12 point titration was conducted by preparing serial dilutions (from 10 mM compound stocks) with DMSO of the test compounds in daughter plates. The reaction was initiated by the addition of 20 μl of ATP (final concentration 20 μM). Rates of reaction were obtained using a Molecular Devices Spectramax plate reader (Sunnyvale, Calif.) over 10 min at 30° C. The Ki values were determined from the rate data as a function of inhibitor concentration.
Nc1n[nH]c2cc(=O)n(-c3cccc(S(N)(=O)=O)c3)nc12 [Compound I-9] was tested, and the Ki was < 4 µM.
For COc1cccc(-n2nc3c(N)n[nH]c3cc2=O)c1 [Compound I-1], the Ki was < 4 µM.
In the case of COc1cc2ncnc(Nc3n[nH]c4cc(=O)n(-c5cccc(C(F)(F)F)c5)nc34)c2cc1OC [Compound I-6], the Ki is reported as < 4 µM.
For Cc1ccc(-n2nc3c(N)n[nH]c3cc2=O)cc1 [Compound I-5], the Ki was < 4 µM.
For Nc1n[nH]c2cc(=O)n(-c3cccc([N+](=O)[O-])c3)nc12 [Compound I-7], the Ki was < 4 µM.
Nc1n[nH]c2cc(=O)n(-c3ccccc3)nc12 [Compound I-2] was tested, and the Ki was < 4 µM.
In the case of Nc1n[nH]c2cc(=O)n(-c3cccc(Cl)c3)nc12 [Compound I-8], the Ki is reported as < 4 µM.
With Nc1n[nH]c2cc(=O)n(-c3ccc(Oc4ccccc4)cc3)nc12 [Compound I-4] the Ki was < 4 µM.
